Drawing on PubChem BioAssay AID489034 (Sanford-Burnham Center for Chemical Genomics, 2010), this text covers IC50 for 63 compounds.

The source made the active and inactive calls.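 Rule for the calls: active = mean IC50 at or below a set limit; inactive = the rest.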

The subject of the test is 697 B-cell NF-kB luciferase reporter, PMA/ionomycin, 16 h. The test is described as follows: inhibitors of antigen receptor-driven NF-kB, dose response, 697 B cells, PMA/ionomycin, luminescence (AID 489034).

With `N#CC(c1cccc(Cl)c1)c1ccc2c(C(F)(F)F)cc(C(F)(F)F)nc2n1` (stereo not drawn), the IC50 was > 80 µM (inactive).
In the case of `C[C@@H]1C[C@@H]2O[C@H]2/C=C\C=C\C(=O)Cc2c(Cl)c(O)cc(O)c2C(=O)O1`, the 50% inhibitory concentration (IC50) is 0.275 µM.
With `Cn1nc(CC(=O)Nc2ccc3c(c2)OCCO3)c2ccccc2c1=O` the figure was 68.7 µM (inactive).
The value for `O=C(CCl)N1CCCC1c1ccc2c(c1)OCCO2` (stereo not drawn) was 0.478 µM; that for `Cc1ccc(-c2csc(NC(=O)C3CCN(S(=O)(=O)c4cccs4)CC3)n2)cc1` was > 80 µM (inactive); that for `CCN(CC)S(=O)(=O)c1ccc(Oc2ccc(S(=O)(=O)N(CC)CC)cc2)cc1` was > 80 µM (inactive).
With `O=C(Nc1nc(-c2ccc(F)c(F)c2)cs1)c1ccc(OCC2CCCO2)cc1` (stereo not drawn) the figure was > 80 µM (inactive); with `Cc1ccc(Cn2ccsc2=NC(=O)CCl)cc1`, 0.489 µM.
On to `c1ccc(-c2ccc(-c3nc(-c4ccccn4)no3)cc2)cc1`, for which the IC50 was 0.967 µM.
Regarding `N#Cc1c(NC(=O)CSc2ncn[nH]2)sc2c1CCCC2`, the half-inhibitory concentration (IC50) is 0.3 µM.
With `COC(=O)Cc1ccc(NC(=O)c2ccc(C(C)(C)C)cc2)cc1` the figure was below 0.16 µM; with `COc1ccc(CCNc2ncnc3sc(C)cc23)cc1OC`, 33.4 µM (inactive).
The value for `OCCCNc1nccc(-c2cc(Nc3cccc(Cl)c3)ncn2)n1` was 4.1 µM.
Consider `CN=c1scc(-c2ccccc2F)n1/N=C/c1ccc[nH]1`, for which the IC50 is 0.702 µM.
Turning to `COc1cc(CSc2nnnn2-c2ccc(C)cc2)cc(OC)c1OC`, the IC50 is > 80 µM (inactive).
Regarding `CCC(C)(C)c1ccc(OCCCC[n+]2ccc(C)cc2)c(C(C)(C)CC)c1`, the IC50 was 22.3 µM (inactive).
Turning to `CC(=O)O[C@H]1[C@H]2O[C@]23[C@@H]2CC[C@]4(O)C[C@@H](O)CC[C@]4(C)C2CC[C@]3(C)[C@H]1c1ccc(=O)oc1` (stereo partly drawn), the IC50 was 0.223 µM.
Regarding `C=C1C(=O)O[C@@H]2C[C@@H](C)[C@@H]3C=CC(=O)[C@@]3(C)[C@@H](OC(=O)CC(=O)O[C@H]3[C@@H]4C(=C)C(=O)O[C@@H]4C[C@@H](C)[C@@H]4C=CC(=O)[C@]43C)[C@H]12`, the IC50 was 0.377 µM.
With `CC(C)(C)c1ccc(C(=O)Nc2ccc(CC(=O)O)cc2)o1` the figure was below 0.16 µM; with `Cc1nn(-c2ccccc2)c(C)c1/C=N/NC(=O)c1cc(-c2cccs2)[nH]n1`, 21.5 µM (inactive); with `CCCCCCn1ccc(=N)cc1`, > 80 µM (inactive).
With `CCCCCCCCCCCCn1ccc(=N)cc1` the figure was 9.19 µM.
With `CC(=O)c1cn(Cc2ccccc2C#N)c2ccccc12` the figure was > 80 µM (inactive).
Consider `N#Cc1c(NC(=O)CSc2ncn[nH]2)sc2c1CCCCC2`, for which the 50% inhibitory concentration (IC50) is 0.283 µM.
For `COc1ccc(CN(C)c2ccc(S(=O)(=O)N3CCN(C)CC3)cc2[N+](=O)[O-])cc1OC`, the IC50 was > 80 µM (inactive).
The value for `C=C1C(=O)O[C@@H]2C[C@@H](C)[C@@H]3C=CC(=O)[C@@]3(C)[C@@H](O)[C@H]12` was > 80 µM (inactive); that for `Cc1cc([N+](=O)[O-])nn1Cc1ccccc1F` was > 80 µM (inactive); that for `CC1CCc2c(sc(NC(=O)CSc3ncn[nH]3)c2C#N)C1` (stereo not drawn) was 0.209 µM.
The value for `CCN1/C(=C\c2ccc3ccccc3[n+]2CC)Sc2cc(C)ccc21` was > 80 µM (inactive); that for `Nc1ncnc2c1ccn2[C@@H]1O[C@H](CO)[C@@H](O)[C@H]1O` was 1.01 µM.
The value for `Cc1cc(NNC(=O)Nc2cccc(Cl)c2)nc2c1c(C)nn2C` was > 80 µM (inactive); that for `CC(=O)OC[C@]12CCC(C)=C[C@H]1O[C@@H]1[C@H](O)[C@@H](OC(C)=O)[C@@]2(C)[C@]12CO2` was below 0.16 µM; that for `CC1CCN(c2nc3ccc(C(=O)O)cc3s2)CC1` was 1.33 µM.
For the compound `COc1cccc2c1C(=O)c1c(O)c3c(c(O)c1C2=O)C[C@@](O)(C(=O)CO)C[C@@H]3O[C@H]1C[C@H](N)[C@@H](O)[C@H](C)O1`, the 50% inhibitory concentration (IC50) was 3.53 µM.
With `O=C(Nc1cccc(C(=O)O)c1)Nc1ccc2c(c1)OCO2` the figure was 1.14 µM; with `Cn1nccc1C(=O)NC1CCCc2c1cnn2-c1ccccc1F` (stereo not drawn), 56.3 µM (inactive); with `COc1cc(NC(C)CCCN)c2ncccc2c1` (stereo not drawn), > 80 µM (inactive).
With `O=C(CSc1nnnn1C1CC2CCC1C2)Nc1ccnc2ccccc12` (stereo not drawn) the figure was > 80 µM (inactive); with `COc1ccc(/C=C/c2cc(-c3ccc(C)cc3)o[n+]2C)cc1`, 5.74 µM.
The value for `CCn1c(C)cc(C(=O)COC(=O)c2ccccc2[N+](=O)[O-])c1C` was below 0.16 µM; that for `O=C(O)CSCC(=O)Nc1ccc(C2CCCCC2)cc1` was 0.776 µM; that for `Cc1sc2ncnc(N3CCN(CCOc4ccc(Cl)cc4)CC3)c2c1C` was > 80 µM (inactive).
As for `COc1cc2c(cc1OC)[C@@H]1C(=O)c3ccc4c(c3O[C@@H]1CO2)C[C@H](C(C)C)O4`, the IC50 was > 80 µM (inactive).
With `Cc1cc(Cl)c(S(=O)(=O)N2CCCCCC2)cc1OCC(=O)NC1CCCCC1` the figure was > 80 µM (inactive).
With `COc1cc(/C=N/NC(=S)Nc2cccc(C(=O)O)c2)ccc1O` the figure was 15.3 µM.
Consider `COc1ccccc1C(=O)Nc1nc2ccccc2[nH]1`, for which the half-inhibitory concentration (IC50) is 0.454 µM.
The value for `CCOc1ccc(NC(=O)Nc2cccc(C(=O)O)c2)cc1` was 0.504 µM.
The value for `Nc1nc(Cl)nc2c1ncn2[C@H]1C[C@H](O)[C@@H](CO)O1` was 5.06 µM.
Turning to `COc1ccc(C[C@H]2NC[C@H](O)[C@H]2OC(C)=O)cc1`, the IC50 is below 0.16 µM.
The value for `CCOc1ccc(/C=C2\SC(=S)N(CCC(=O)O)C2=O)cc1` was 0.211 µM; that for `C#CC(=O)N(c1ccc(OC)c(OC)c1)C(C(=O)NC1CCCC1)c1cccs1` (stereo not drawn) was 0.2 µM.
With `CCCCCNC(=O)c1ccc2c(=O)n(CC3CCCO3)c(=O)[nH]c2c1` (stereo not drawn) the figure was > 80 µM (inactive).
With `Cc1ccc(NC(=O)COc2ccc(N(C)C(=O)C(C)(C)C)cc2)cc1S(=O)(=O)N1CCCCC1` the figure was > 80 µM (inactive); with `O=C(c1ccc(Br)cc1)c1cc([N+](=O)[O-])ccc1N1CCCCC1`, > 80 µM (inactive).
`C=CC(=O)Nc1ccc(Nc2nc(NC3CCC(N(C)C)CC3)nc3c2ncn3C(C)C)cc1` (stereo not drawn): the half-inhibitory concentration (IC50) was 0.593 µM.
The value for `O=C(NCCNCCO)C1(C(F)(F)F)C/C(=C\CCO)CCCO1` (stereo not drawn) was > 80 µM (inactive); that for `Nc1nc(Cl)nc2c1ncn2C1CC(O)C(CO)O1` (stereo not drawn) was > 80 µM (inactive); that for `O=C1/C(=C/c2ccccc2)C[C@@]2(O)[C@H]3Cc4ccc(O)c5c4[C@@]2(CCN3CC2CC2)C1O5` (stereo partly drawn) was 6.2 µM.
The value for `CC(C)Cc1cc(C(C)(C)C)ccc1OC(=S)N(C)C` was > 80 µM (inactive); that for `C[C@@H]1O[C@@H](O[C@@H]2C=C3CC[C@@H]4C(CC[C@]5(C)[C@@H](c6ccc(=O)oc6)CC[C@]45O)[C@@]3(C)CC2)[C@H](O)[C@H](O)[C@H]1O` (stereo partly drawn) was below 0.16 µM.
Regarding `CCOc1ccc(-n2c(-c3ccc(OC)cc3)c[n+]3c2CCCCC3)cc1`, the IC50 is > 80 µM (inactive).
With `CC1(c2ccc3ccccc3c2)NC(=O)N(CC(=O)N2CCN(Cc3ccc(C#N)cc3)CC2)C1=O` (stereo not drawn) the figure was > 80 µM (inactive).
With `CCCCCCn1c2c(c(=N)c3c1CCC3)CCC2` the figure was > 80 µM (inactive).
